The values below come from patent US20230063703A1, “DRUG AND FOOD FOR TREATING AND/OR PREVENTING ENTERITIS AND/OR HEPATITIS” (priority 2020, published 2023).

For data set [1], the system named is DSS-induced colitis model mice. As to the kind of experiment: Enteritis-inhibiting effect of single species D-amino acids in DSS-induced colitis model mice. In kind it is in vivo, mice (B6CL57). To be noted: single D-amino acid in drinking water 3 weeks, then 2% DSS; 8th day; compared with water containing all five D-amino acids. On the procedure:
The DAI scores were assigned for the following: diarrhea symptom (normal: 0, soft feces: 1, mild diarrhea: 2, moderate diarrhea: 3, severe diarrhea: 4); bloody stool symptom (normal: 0, mild bloody stool: 1, moderate bloody stool: 2, severe bloody stool: 3, severe bloody stool with anal bleeding: 4); and body weight reduction (None: 0, 1% to 5%: 1, 5% to 10%: 2, 10% to 20%: 3, ÷20%: 4), and the total values were calculated (minimum 0 points, maximum 12 points), for each mouse.

Data set [2] is described as follows: Blood D-serine concentration in mice given drinking water containing D-serine. The following applies: free access to drinking water containing 1% D-serine. The format is in vivo. The text has this:
The blood concentration of administered D-serine is preferably 5 nmol/mL or greater, more preferably 10 nmol/mL or greater and even more preferably 50 nmol/mL or greater. The D-serine blood concentration is also preferably 1 μmol/mL or lower, more preferably 0.5 μmol/mL or lower and even more preferably 0.1 μmol/mL or lower.

The subject of data set [3] is kidneys. The following applies: cited from earlier work; for toxicity on the kidneys: rat, in vivo, ip; for amino acid excretion: after 2 hours.

Where two headings read alike, the source gives them in different places.

Turning to `C[C@@H](N)C(=O)O` [D-Ala, D-alanine], in data set [1], the DAI score result is recorded as “equivalent to drinking water containing all five D-amino acids” and the “body weight reduction suppressing effect” value is reported as “equivalent to drinking water containing all five D-amino acids”.
Regarding `N[C@H](CC(=O)O)C(=O)O` [D-Asp, D-aspartic acid], in data set [1], the DAI score entry is given as “equivalent to drinking water containing all five D-amino acids” and the “body weight reduction suppressing effect” value is “equivalent to drinking water containing all five D-amino acids”.
`N[C@H](CCC(=O)O)C(=O)O` [D-Glu, D-glutamic acid]: in data set [1], the DAI score result is recorded as “significantly inhibited enteritis more than the drinking water containing all five D-amino acids” and the “body weight reduction suppressing effect” value is on record as “significantly inhibited enteritis more than the drinking water containing all five D-amino acids”.
Regarding `N[C@H](CO)C(=O)O` [D-Ser, D-serine], in data set [2], the “blood D-serine concentration” value is 100 nmol/mL. Also, the entries for the “toxicity on the kidneys” value in data set [3] (26 mg/kg), in data set [3] (267 mg/kg) and in data set [3] (800 mg/kg) were “no toxicity”, “toxicity of D-serine on the kidneys was exhibited” and “toxicity of D-serine on the kidneys was exhibited”, respectively. Also, the amino acid excretion entry was “no effect” in data set [3] (rats, intraperitoneal, 26 mg/kg); “no effect” in data set [3] (rats, intraperitoneal, 80 mg/kg); “significantly increased” in data set [3] (rats, intraperitoneal, 267 mg/kg); “significantly increased” in data set [3] (rats, intraperitoneal, 800 mg/kg). Further, in data set [3] (rats, intraperitoneal, doses such as 800 mg/kg, 400 mg/kg or 250 mg/kg), the nephrotoxicity result is listed as “causes nephrotoxicity”. Besides, in data set [1], the DAI score entry is recorded as “equivalent to drinking water containing all five D-amino acids”. In data set [1], the “body weight reduction suppressing effect” value is “equivalent to drinking water containing all five D-amino acids”.
On to `N[C@H](Cc1c[nH]c2ccccc12)C(=O)O` [D-Trp, D-tryptophan], for which, in data set [1], the DAI score result is given as “significantly inhibited enteritis more than the drinking water containing all five D-amino acids” and the “body weight reduction suppressing effect” value is recorded as “significantly inhibited enteritis more than the drinking water containing all five D-amino acids”.
